Laboratory results taken from patent publication US5208223A, “Phosphocholine derivative inhibitors of phospholipase A2” (American Cyanamid Company, priority 1992, dated 1993).
Where a name gives a salt, the structure may show the parent alone. Read-outs that look alike come from different tables or passages of the source.

Legend:
Assay type in all cases: biochemical
[1] = biological target: T1, porcine pancreatic PLA2 (Sus scrofa, UniProt P00592); test: MHPLA2 assay: in vitro porcine pancreatic phospholipase A2, mixed micelle design, [s]=10 μm
T1 construct: purchased Sigma
In short: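 Compounds dried with 10 μM 1-stearyl-2-[3H]-arachidonyl-PC substrate in mixed micelles (0.1M tris-HCl pH 9.0, 10 mM CaCl2, 10 mM Na taurocholate). Reaction started by adding enzyme and run 15 min at 37°C, then stopped with TCA. Released [3H]-arachidonate separated by TLC or column and counted by scintillation.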

[2] = biological target: T1, porcine pancreatic PLA2; test: PLA2 assay: in vitro porcine pancreatic phospholipase A2, preincubation of drug+enzyme, substrate 2 nM; details: preincubation, subs. con. 2; for inhibition at 25 µg/mL: dose 25 μ/ml; for IC50: read-out: IC50 (converted)
In short: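 Porcine pancreatic PLA2 acting on 2 nM radiolabeled arachidonyl-phosphatidylcholine in mixed micelles (0.1 M Tris-HCl pH 9.0, 10 mM CaCl2, 10 mM Na taurocholate), 15 min at 37 °C with preincubation of drug and enzyme. Stopped with TCA; released 3H-arachidonate extracted, separated by TLC or column, counted by scintillation.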

[3] = biological target: T1, porcine pancreatic PLA2; test: HPLA2 assay: in vitro porcine pancreatic phospholipase A2, preincubation design, [s]=10 μm; details: for % Inh. Avg.: subs. con. 10
Description: Phospholipase A2 activity was measured by a radiochemical assay in which labeled synthetic phosphatidylcholine substrate is converted by porcine pancreatic PLA2 to free radiolabeled arachidonate and lyso PC. Radiolabeled arachidonate is extracted from the reaction mixture and separated from unreacted substrate by column chromatography or TLC. Radioactivity (cpm) in samples is quantitated by liquid scintillation counting. Specific details are as follows:
Labeled substrate(1-stearyl-2-^3 H-arachidonylphosphatidylcholine; Amersham, sp. act. 84 (uCi/mmole, 0.025 to 0.2 uCi/assay tube and unlabeled substrates (Avanti), in sufficient quantity to give 20,000 cpm to 50,000 cpm and 10 μM to 1,000 μM final concentration/assay tube are dried under a stream of nitrogen. The PLA2 and mPLA2 assays utilized a […] substrate concentration. The mHPLA2 and HPLA2 assays (vida infra) utilized a 10 μM substrate concentration and the SmPLA2 assay utilized a substrate concentration ranging from 100 to 1000 μm. The substrate is then redissolved in 0.1M tris-HCl buffer, pH 9.0 containing 10 mM CaCl2 and 10 mM Na taurocholate detergent. The mixture is sonicated in a Kontes Sonifier to yield a homogeneous dispersion. The "mixed" micellar substrate is clear. An aliquot is reserved for a cpm count (total substrate). The total reaction volume is 500 μL; siliconized glassware or plasticware is used throughout. Enzyme (Sigma, sp. act.>690 U/mg protein and preferably 900 U/mg protein) is diluted 1:750 or 1:1000 in 0.1M tris-HCl buffer, pH 9.0 (without Ca^++ and detergent). Enzyme dilution depends on substrate concentration and required enzyme concentration.
The substrate in buffer is kept on ice until the reaction is started. The reaction is started by adding 10 μL of diluted enzyme solution to 490 μL of micellar substrate solution. Samples are incubated in a 37° C. water bath for 15 minutes with gentle mixing. The reaction is terminated by the addition of 100 μL of 1M fresh trichloroacetic acid (TCA) solution and chilling the tubes on ice for 30 minutes.
Samples (600 μL) are extracted with 3 ml CHCl3 /MeOH (2:1) for thin layer chromatography or in hexane/ether (9:1) for column chromatography. The phases are separated by gentle centrifugation at 700 rpm×5'. The organic phase is recovered.
Labeled arachidonate extracted with CHCl3 /MeOH is separated on silica gel G TLC plates (Analtech). Twenty μL of a 2 mg/ml internal standard solution of arachidonic acid (Sigma) is combined with 2-3 ml of the organic phase. The entire mixture is dried under nitrogen and redissolved in 50 μL of CHCl3 /MeOH (2:1). A 20 μL sample is counted in 10 ml of Beckman Redi-solv HP and spotted on silica gel G plates. […] Plates are developed in a glass chamber for 1-11/2 hours, air dried, and the spots visualized in an iodine vapor chamber. Standards of phosphatidylcholine, lyso PC, and arachidonic acid (Sigma) are made as 2 mg/ml stocks in CHCl3 /MeOH (2:1) and spotted on plates. Spots corresponding to arachidonate and phospholipid are scraped and counted in 10 ml Beckman Redi-Solv HP scintillation fluid.
Samples are extracted with hexane/ether and the upper organic phase recovered. An aliquot is applied to a Silicar CC4 (Malincrodt) column. Columns are prepared using 1 ml of a 1:1 slurry of silicar CC4 in hexane/ether in a Pasteur pipet (approx. 2 cm height). Columns are rinsed with 500 μL of hexane/ether before adding the sample (300-600 μL) to the column. Columns are eluted with a total of 6 ml of hexane/ether. The 6 ml sample is counted in 10 ml of Beckman Redi-Solv HP scintillation fluid.
or the phospholipase A2 assay, compounds are prepared as 1 mg/ml stock solutions in MeOH and diluted appropriately in PBS.

[4] = biological target: T1, porcine pancreatic PLA2; test: MPLA2 assay: in vitro porcine pancreatic phospholipase A2, mixed micelle design, substrate 2 nM; details: for inhibition at 25 µg/mL: dose 25 μ/ml
In short: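 Radiochemical PLA2 assay, mixed-micelle design: compound dried under N2 with 1-stearyl-2-[3H]-arachidonyl-PC substrate (2 nM) in 0.1M Tris-HCl pH 9.0, 10 mM CaCl2, 10 mM Na taurocholate. Reaction started with enzyme, 15 min at 37° C, stopped with TCA; released [3H]-arachidonate extracted, separated by TLC or column, counted by scintillation.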

[5] = dose 25 μ/ml, subs. con. 10, read-out: % Inh.
[6] = dose 10 μ/ml, subs. con. 10, read-out: % Inh. Avg.
[7] = dose 20 μ/ml, subs. con. 10, read-out: % Inh. Avg.
[8] = dose 50 μ/ml, subs. con. 10, read-out: % Inh. Avg.
[9] = dose 10 μ/ml, read-out: % Inh. Avg.
[10] = dose 20 μ/ml, subs. con. 10, read-out: % Inh.
[11] = dose 50 μ/ml, subs. con. 10, read-out: % Inh.
[12] = dose 10 μ/ml, subs. con. 10, read-out: % Inh.

T1 sequence (P00592 23-146): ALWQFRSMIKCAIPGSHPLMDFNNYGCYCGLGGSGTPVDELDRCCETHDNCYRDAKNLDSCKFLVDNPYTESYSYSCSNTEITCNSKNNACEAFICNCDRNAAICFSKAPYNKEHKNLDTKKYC

Row | SMILES | inhibition at 25 µg/mL [1, 5] | IC50 [2] | inhibition at 10 µg/mL [2, 9] | inhibition at 20 µg/mL [3, 10] | inhibition at 50 µg/mL [3, 11] | inhibition at 25 µg/mL ([2]; read-out: % Inh.) | inhibition at 10 µg/mL [3, 6] | inhibition at 20 µg/mL [3, 7] | inhibition at 50 µg/mL [3, 8] | inhibition at 25 µg/mL ([4]; subs. con. 2, read-out: % Inh.) | also measured
1 | CCCCCCCCCCCCCCCCOC[C@H](COP(=O)([O-])OCC[N+](C)(C)C)OP(=O)(OC)OCCCCCCCCCCCCCCCC (single isomer, unassigned) | 7% | 2.5 µM |  |  |  | 93% | 17% | 21% | 30% | 93% | 
2 | CCCCCCCCCCCCCCCCOC[C@@H](COP(=O)([O-])OCC[N+](C)(C)C)OP(=O)(OC)OCCCCCCCCCCCCCCCC (single isomer, unassigned) |  |  | 29% |  |  |  | 22% | 18% | 23% |  | inhibition at 20 µg/mL ([2]; dose 20 μ/ml, read-out: % Inh. Avg.): 26%
3 | CCCCCCCCCCCCCCCCOC[C@@H](COP(=O)([O-])OCC[N+](C)(C)C)OP(=O)(OC)OCCCCCCCCCCCCCCCC (single isomer, unassigned) [3,5,8,10-Tetraoxa-4,9-diphosphahexacosan-1-aminium, 7-[(hexa] |  |  |  |  |  |  |  |  |  |  | % Inh. ([1]; dose 25 μ/ml, subs. con. 10): 9%; % Inh. Avg. ([2]; dose 10 μ/ml): 25%; % Inh. Avg. ([2]; dose 20 μ/ml): 39%; % Inh. Avg. ([3]; dose 10 μ/ml): 18%; % Inh. Avg. ([3]; dose 20 μ/ml): 12%; % Inh. Avg. ([3]; dose 50 μ/ml): 25%

Continued, in another order:

Row | inhibition at 25 µg/mL [1, 5] | IC50 [2] | inhibition at 10 µg/mL [2, 9] | inhibition at 20 µg/mL [3, 10] | inhibition at 50 µg/mL [3, 11] | SMILES | inhibition at 25 µg/mL ([2]; read-out: % Inh.) | inhibition at 10 µg/mL [3, 6] | inhibition at 20 µg/mL [3, 7] | inhibition at 50 µg/mL [3, 8] | inhibition at 25 µg/mL ([4]; subs. con. 2, read-out: % Inh.) | also measured
4 | 1% | 3.18 µM | 27% |  |  | CCCCCCCCCCCCCCCCOCC(COP(=O)([O-])OCC[N+](C)(C)C)OP(=O)(O)OCCCCCCCCCCCCCCCC (single isomer, unassigned; more polar) [3,5,8,10-Tetraoxa-4,9-diphosphahexacosan-1-aminium, 7-[(hexadecyloxy)methyl]-4,9-dihydroxy-N,N,N-trimethylhydroxide, 4-(inner salt), 4,9-dioxide, more polar isomer] | 91% | 18% | 22% | 32% |  | 
5 |  |  |  | 0% | 0% | CCCCCCCCCCCCCCCCOCC(COP(=O)([O-])OCC[N+](C)(C)C)OP(=O)(O)OCCCCCCCCCCCCCCCC (centres unmarked) [3,5,8,10-Tetraoxa-4,9-diphosphahexacosan-1-aminium, 7-[(hexadecyloxy)methyl]-4,9-dihydroxy-N,N,N-trimethyl-, hydroxide, 4-inner salt), 4,9-dioxide] |  |  |  |  |  | 
6 | 68% | 1.86 µM | 66% | 33% | 36% | CCCCCCCCCCCCCCCCOCC(COP(=O)([O-])OCC[N+](C)(C)C)C[S+]([O-])CCCCCCCCCCCCCCCC (centres unmarked) [7-[(Hexadecylsulfinyl)methyl]-4-hydroxy-N,N,N-trimethyl-3,5,9-trioxa-4-phosphapentacosan-1-aminium, hydroxide, inner salt, 4-oxide] |  | 22% | 33% | 42% | 98% | inhibition at 10 µg/mL [1, 12]: 3%; inhibition at 20 µg/mL ([1]; dose 20 μ/ml, subs. con. 10): 22%; % Inh. ([2]; dose 10 μ/ml): 88%; inhibition at 20 µg/mL ([2]; dose 20 μ/ml, read-out: % Inh.): 93%; inhibition at 10 µg/mL [3, 12]: 27%; inhibition at 10 µg/mL ([4]; dose 10 μ/ml, subs. con. 2, read-out: % Inh.): 71%; inhibition at 20 µg/mL ([4]; dose 20 μ/ml, subs. con. 2, read-out: % Inh.): 84%; IC50 ([4]; subs. con. 2): 3.86 µM
